This is an account of results in patent US12473304B2, “Heterocyclic PAD4 inhibitors” (BRISTOL-MYERS SQUIBB COMPANY, priority 2020, dated 2025).

For this test, the target named is human PAD4 (hPAD4) (Homo sapiens (Human), UniProt Q9UM07). Nature of the test: RFMS Human PAD4 Functional Assay 1. The settings on record: RFMS assay 1; 5 nM hPAD4, 250 μM BAEE substrate, 50 μM calcium, 37° C. Type of test: biochemical. The method, boiled down: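 Recombinant hPAD4 (5 nM) was preincubated with compound (top 50 μM, 0.5% DMSO) for 30 min at 37 °C, then reacted with 250 μM BAEE for 90 min at 37 °C in pH 7.5 HEPES buffer with 50 μM calcium and 5 μM TPEN. Product was derivatized with phenyl glyoxal and quantified by RapidFire MS.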
Sequence of human PAD4 (hPAD4) (Q9UM07 whole entry): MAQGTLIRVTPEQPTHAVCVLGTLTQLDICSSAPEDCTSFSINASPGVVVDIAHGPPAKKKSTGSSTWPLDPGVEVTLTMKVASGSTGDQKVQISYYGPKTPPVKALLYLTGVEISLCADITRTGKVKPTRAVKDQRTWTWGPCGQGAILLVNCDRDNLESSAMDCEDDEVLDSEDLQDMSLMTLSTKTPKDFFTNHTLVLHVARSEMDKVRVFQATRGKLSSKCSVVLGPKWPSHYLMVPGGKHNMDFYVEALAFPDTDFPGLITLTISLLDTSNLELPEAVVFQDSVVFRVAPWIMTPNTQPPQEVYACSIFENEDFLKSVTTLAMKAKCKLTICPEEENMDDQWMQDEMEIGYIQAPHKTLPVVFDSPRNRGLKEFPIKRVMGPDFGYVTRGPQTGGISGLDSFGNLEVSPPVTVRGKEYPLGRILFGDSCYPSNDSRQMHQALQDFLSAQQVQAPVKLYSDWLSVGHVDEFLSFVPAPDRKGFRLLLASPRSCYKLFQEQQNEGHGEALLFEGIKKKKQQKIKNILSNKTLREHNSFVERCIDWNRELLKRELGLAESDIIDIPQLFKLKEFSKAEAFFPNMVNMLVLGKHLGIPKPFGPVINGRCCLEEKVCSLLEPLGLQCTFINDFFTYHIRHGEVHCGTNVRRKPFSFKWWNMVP
For `COc1cc(C(=O)N2CC3CCC2[C@@H]3N)cc2sc(-c3cc4ccc(C)cc4n3CC3CC3)c(C)c12` (stereo partly drawn) [Example 127, ((7R)-7-Amino-2-azabicyclo[2.2.1]heptan-2-yl)(2-(1-(cyclopropylmethyl)-6-methyl-1H-indol-2-yl)-4-methoxy-3-methylbenzo[b]thiophen-6-yl)methanone], the half-maximal inhibitory concentration (IC50) was found to be 98 nM.
Consider `COc1cc(C(=O)N2CC3CCC2[C@@H]3N)cc2sc(-c3cc4ccc(-c5cccc(F)c5C)cc4n3CC3CC3)c(C)c12` (stereo partly drawn) [Example 128, ((7R)-7-Amino-2-azabicyclo[2.2.1]heptan-2-yl)(2-(1-(cyclopropylmethyl)-6-(3-fluoro-2-methylphenyl)-1H-indol-2-yl)-4-methoxy-3-methylbenzo[b]thiophen-6-yl)methanone], for which the 50% inhibitory concentration (IC50) was 4340 nM.
The same measure for `COc1cc(-c2ccc3cc(-c4sc5cc(C(=O)N6CC7CCC6[C@@H]7N)cc(OC)c5c4C)n(CC4CC4)c3c2)ccn1` (stereo partly drawn) [Example 129, ((7R)-7-Amino-2-azabicyclo[2.2.1]heptan-2-yl)(2-(1-(cyclopropylmethyl)-6-(2-methoxypyridin-4-yl)-1H-indol-2-yl)-4-methoxy-3-methylbenzo[b]thiophen-6-yl)methanone]: 376 nM; for `COc1cc(C(=O)N2CC3CCC2[C@@H]3N)cc2sc(-c3cc4ccc(N5CCC(N)CC5)cc4n3CC3CC3)c(C)c12` (stereo partly drawn) [Example 130, ((7R)-7-Amino-2-azabicyclo[2.2.1]heptan-2-yl)(2-(6-(4-aminopiperidin-1-yl)-1-(cyclopropylmethyl)-1H-indol-2-yl)-4-methoxy-3-methylbenzo[b]thiophen-6-yl)methanone]: 38 nM; for `COc1cc(C(=O)N2CC3CCC2[C@@H]3N)cc2sc(-c3cc4ccc(N5CCC(OC)CC5)cc4n3CC3CC3)c(C)c12` (stereo partly drawn) [Example 131, ((7R)-7-Amino-2-azabicyclo[2.2.1]heptan-2-yl)(2-(1-(cyclopropylmethyl)-6-(4-methoxypiperidin-1-yl)-1H-indol-2-yl)-4-methoxy-3-methylbenzo[b]thiophen-6-yl)methanone]: 146 nM.
Next, `COc1cc(C(=O)N2CC3CCC2[C@@H]3N)cc2sc(-c3cc4ccc(-c5ccc6c(c5)CNC6=O)nc4n3CC3CC3)c(C)c12` (stereo partly drawn) [Example 132, 5-(2-(6-((7R)-7-Amino-2-azabicyclo[2.2.1]heptane-2-carbonyl)-4-methoxy-3-methylbenzo-[b]thiophen-2-yl)-1-(cyclopropylmethyl)-1H-pyrrolo[2,3-b]pyridin-6-yl)isoindolin-1-one]: 476 nM.
Next, `COc1cc(C(=O)N2CC3CCC2[C@@H]3N)cc2sc(-c3cc4ccc(-c5ccc(C(N)=O)c(F)c5)nc4n3CC3CC3)c(C)c12` (stereo partly drawn) [Example 133, 4-(2-(6-((7R)-7-Amino-2-azabicyclo[2.2.1]heptane-2-carbonyl)-4-methoxy-3-methylbenzo[b]thiophen-2-yl)-1-(cyclopropylmethyl)-1H-pyrrolo[2,3-b]pyridin-6-yl)-2-fluorobenzamide]: 129 nM; `COc1cc(C(=O)N2CC3CCC2[C@@H]3N)cc2sc(-c3cc4ccc(-c5cccc(O)c5F)nc4n3CC3CC3)c(C)c12` (stereo partly drawn) [Example 134, ((7R)-7-Amino-2-azabicyclo[2.2.1]heptan-2-yl)(2-(1-(cyclopropylmethyl)-6-(2-fluoro-3-hydroxyphenyl)-1H-pyrrolo[2,3-b]pyridin-2-yl)-4-methoxy-3-methylbenzo[b]thiophen-6-yl)methanone]: 212 nM; `COc1cc(C(=O)N2CC3CCC2[C@@H]3N)cc2sc(-c3cc4ccc(-c5ccc6c(c5)C(=O)NC6)nc4n3CC3CC3)c(C)c12` (stereo partly drawn) [Example 135, 6-(2-(6-((7R)-7-Amino-2-azabicyclo[2.2.1]heptane-2-carbonyl)-4-methoxy-3-methylbenzo[b]thiophen-2-yl)-1-(cyclopropylmethyl)-1H-pyrrolo[2,3-b]pyridin-6-yl)isoindolin-1-one]: 233 nM.
On to `COc1cc(C(=O)N2CC3CCC2[C@@H]3N)cc2sc(-c3cc4ccc(-c5ccc(O)c(F)c5)nc4n3CC3CC3)c(C)c12` (stereo partly drawn) [Example 136, ((7R)-7-Amino-2-azabicyclo[2.2.1]heptan-2-yl)(2-(1-(cyclopropylmethyl)-6-(3-fluoro-4-hydroxyphenyl)-1H-pyrrolo[2,3-b]pyridin-2-yl)-4-methoxy-3-methylbenzo[b]thiophen-6-yl)methanone], for which the IC50 amounted to 705 nM.
Next, `COc1cc(C(=O)N2CC3CCC2[C@@H]3N)cc2sc(-c3cc4ccc(N5CCC(OC)CC5)nc4n3CC3CC3)c(C)c12` (stereo partly drawn) [Example 137, ((7R)-7-Amino-2-azabicyclo[2.2.1]heptan-2-yl)(2-(1-(cyclopropylmethyl)-6-(4-methoxypiperidin-1-yl)-1H-pyrrolo[2,3-b]pyridin-2-yl)-4-methoxy-3-methylbenzo[b]thiophen-6-yl)methanone]: 71 nM; `COc1cc(C(=O)N2C[C@H](N)C[C@@H](F)C2)cc2sc(-c3cc4cccnc4n3CC3CC3)c(C)c12` [Example 138, ((3R,5R)-3-Amino-5-fluoropiperidin-1-yl)(2-(1-(cyclopropylmethyl)-1H-pyrrolo[2,3-b]pyridin-2-yl)-4-methoxy-3-methylbenzo[b]thiophen-6-yl)methanone]: 252 nM; `COc1cc(C(=O)N2C[C@H](N)C[C@@H](F)C2)cc2sc(-c3cc4ccc(-c5ccc6c(c5)CNC6=O)nc4n3CC3CC3)c(C)c12` [Example 139, 5-(2-(6-((3R,5R)-3-Amino-5-fluoropiperidine-1-carbonyl)-4-methoxy-3-methylbenzo[b]thiophen-2-yl)-1-(cyclopropylmethyl)-1H-pyrrolo[2,3-b]pyridin-6-yl)isoindolin-1-one]: 198 nM.
`COc1cc(C(=O)N2C[C@H](N)C[C@@H](F)C2)cc2sc(-c3cc4ccc(-c5ccc6c(c5)C(=O)NC6)nc4n3CC3CC3)c(C)c12` [Example 140, 6-(2-(6-((3R,5R)-3-Amino-5-fluoropiperidine-1-carbonyl)-4-methoxy-3-methylbenzo[b]thiophen-2-yl)-1-(cyclopropylmethyl)-1H-pyrrolo[2,3-b]pyridin-6-yl)isoindolin-1-one]: the IC50 came to 346 nM.
Regarding `COc1cc(C(=O)N2C[C@H](N)C[C@@H](F)C2)cc2sc(-c3cc4ccc(-c5ccc(C(N)=O)c(F)c5)nc4n3CC3CC3)c(C)c12` [Example 141, 4-(2-(6-((3R,5R)-3-Amino-5-fluoropiperidine-1-carbonyl)-4-methoxy-3-methylbenzo[b]thiophen-2-yl)-1-(cyclopropylmethyl)-1H-pyrrolo[2,3-b]pyridin-6-yl)-2-fluorobenzamide], the IC50 came to 179 nM.
The same measure for `COc1cc(C(=O)N2C[C@H](N)C[C@@H](F)C2)cc2sc(-c3cc4ccc(N5CCC(OC)CC5)nc4n3CC3CC3)c(C)c12` [Example 142, ((3R,5R)-3-Amino-5-fluoropiperidin-1-yl)(2-(1-(cyclopropylmethyl)-6-(4-methoxypiperidin-1-yl)-1H-pyrrolo[2,3-b]pyridin-2-yl)-4-methoxy-3-methylbenzo[b]thiophen-6-yl)methanone]: 642 nM; for `COc1cc(C(=O)N2C[C@H](N)C[C@@H](F)C2)cc2sc(-c3cc4ccc(-c5ccc6c(c5)C(=O)NC6)cc4n3CC3CC3)c(C)c12` [Example 143, 6-(2-(6-((3R,5R)-3-Amino-5-fluoropiperidine-1-carbonyl)-4-methoxy-3-methylbenzo[b]thiophen-2-yl)-1-(cyclopropylmethyl)-1H-indol-6-yl)isoindolin-1-one]: 588 nM.
The same measure for `COc1cc(C(=O)N2C[C@H](N)C[C@@H](F)C2)cc2sc(-c3cc4ccc(-c5ccc6c(c5)CNC6=O)cc4n3CC3CC3)c(C)c12` [Example 144, 5-(2-(6-((3R,5R)-3-Amino-5-fluoropiperidine-1-carbonyl)-4-methoxy-3-methylbenzo[b]thiophen-2-yl)-1-(cyclopropylmethyl)-1H-indol-6-yl)isoindolin-1-one]: 164 nM.
As for `COc1cc(C(=O)N2CC3CCC2[C@@H]3N)cc2oc(-c3cc4cccnc4n3CC3CC3)c(C)c12` (stereo partly drawn) [Example 145, ((7R)-7-Amino-2-azabicyclo[2.2.1]heptan-2-yl)(2-(1-(cyclopropylmethyl)-1H-pyrrolo[2,3-b]pyridin-2-yl)-4-methoxy-3-methylbenzofuran-6-yl)methanone], the IC50 stood at 285 nM.
Next, `COc1cc(C(=O)N2CC3CCC2[C@@H]3N)cc2oc(-c3cc4ccc(Cl)nc4n3CC3CC3)c(C)c12` (stereo partly drawn) [Example 146, ((7R)-7-Amino-2-azabicyclo[2.2.1]heptan-2-yl)(2-(6-chloro-1-(cyclopropylmethyl)-1H-pyrrolo[2,3-b]pyridin-2-yl)-4-methoxy-3-methylbenzofuran-6-yl)methanone]: 1210 nM; `COc1cc(C(=O)N2C[C@H](N)C[C@@H](F)C2)cc2oc(-c3cc4cccnc4n3CC3CC3)c(C)c12` [Example 147, ((3R,5R)-3-Amino-5-fluoropiperidin-1-yl)(2-(1-(cyclopropylmethyl)-1H-pyrrolo[2,3-b]pyridin-2-yl)-4-methoxy-3-methylbenzofuran-6-yl)methanone]: 954 nM; `COc1cc(C(=O)N2CC3CCC2[C@@H]3N)cc2oc(-c3cc4ccccc4n3CC3CC3)c(C)c12` (stereo partly drawn) [Example 148, ((7R)-7-Amino-2-azabicyclo[2.2.1]heptan-2-yl)(2-(1-(cyclopropylmethyl)-1H-indol-2-yl)-4-methoxy-3-methylbenzofuran-6-yl)methanone]: 442 nM.
The same measure for `COc1cc(C(=O)N2CC3CCC2[C@@H]3N)cc2oc(-c3cc4ccc(-c5ccc6c(c5)CNC6=O)cc4n3CC3CC3)c(C)c12` (stereo partly drawn) [Example 149, 5-(2-(6-((7R)-7-Amino-2-azabicyclo[2.2.1]heptane-2-carbonyl)-4-methoxy-3-methylbenzofuran-2-yl)-1-(cyclopropylmethyl)-1H-indol-6-yl)isoindolin-1-one]: 111 nM.
